For one assay, the target named is T1, DA D-2 (Rattus norvegicus, UniProt P61169).
T1 construct: Male Wistar rats (Mol:Wist) weighing about 200 g at the time of operation are used; from tissue; host or cells: living male Wistar (Mol:Wist) rats with unilateral 6-OHDA lesions (in vivo, endogenous receptor)
The assay can be described thus: antagonism of pergolide-induced circling behaviour in rats with unilateral 6-OHDA lesions. In kind it is in vivo. Conditions: sc, read-out: Pergolide rot. inhibition ED50, 2h (sc), 6-OHDA lesions, s.c., 2 h before pergolide. The procedure: ANTAGONISM OF PERGOLIDE-INDUCED CIRCLING BEHAVIOUR IN RATS WITH UNILATERAL 6-OHDA LESIONS
Dopamine (DA) D-2 agonists induce contralateral circling behaviour in rats with 6-OHDA lesions. Pergolide-induced circling is antagonized by DA D-2 antagonists.
Male Wistar rats (Mol:Wist) weighing about 200 g at the time of operation are used. Unilateral lesions are made in pentobarbital anaesthetized rats by injection of 6-OHDA. HCl 9.7 μg/μl (equivalent to 8 μg free base) per 4 min. into the rostral tip of the substantia nigra. The saline solution contains ascorbic acid 0.2 mg/ml, is bubbled with N2 and is kept ice-cold. The experiments are done when stable contralateral circling responses to pergolide (0.05 μmol/kg, s.c.) are obtained. The circling response is measured in rotometer bowls. Only rats showing more than 400 complete turns in 2 hrs control session are used. Dose-response curves are obtained by alternating test and control sessions on a weekly basis. The antagonists are injected s.c. 2 hrs before the agonist. The effect of individual doses of test drugs is calculated as per cent of the mean effect of control sessions one week before and one week after the test session for each rat. ED50 values are calculated by log-probit analysis. Four to eight rats are used at each dosage.

The target in the next assay is α1 adrenoceptors. The experiment in a line: inhibition of 3H-prazosin binding to α1 adrenoceptors in rat brain in vitro. Conditions: 3H-prazosin 0.25 nM, rat brain membranes, read-out: Binding IC50, 3H Praz. On the procedure:
INHIBITION OF ^3 H-PRAZOSIN BINDING TO α1 ADRENOCEPTORS IN RAT BRAIN IN VITRO
Method and results in Hyttel and Larsen, J. Neurochem, 44, 1615-1622, 1985; Skarsfeldt and Hyttel, Eur. J. Pharmacol. 125, 323-340, 1986.
Male Wistar (Mol:Wist) rats (125-200 g) are sacrificed and brain tissue is dissected and weighed. The tissue is homogenized (Ultra Turrax, 10 sec.) in 10 ml of ice-cold […] Tris buffer pH 7.7 (at 25° C.). The homogenate is centrifuged twice at 20,000 g for 10 min. at 4° C. with rehomogenization of the pellet in 10 ml ice-cold buffer. The final pellet is homogenized in 400 vol (w/v) ice-cold buffer.
Incubation tubes kept on ice in triplicate receive 100 μl of drug solution in water (or water for total binding) and 4000 μl of tissue suspension (final tissue content corresponds to 10 mg original tissue). The binding experiment is initiated by addition of 100 μl of ^3 H-Prazosin (final concentration 0.25 nM) and by placing the tubes in a 25° C. water bath. After incubation for 20 min. the samples are filtered under vacuum (0-50 mBar) through Whatman GF/F filters (25 mm). The tubes are rinsed with 5 ml ice-cold buffer which then are poured on the filters. Thereafter, the filters are washed with 5 ml of buffer. The filters are placed in counting vials and 4 ml of appropriate scintillation fluid (e.g. Picofluor™15) are added. After shaking for 1 h and storage 2 hrs in the dark the content of radioactivity is determined by liquid scintillation counting. Specific binding is obtained by subtracting the nonspecific binding in the presence of 1 μM of Prazosin.
For determination of the inhibition of binding five concentrations of drugs covering 3 decades are used.
The measured cpm are plotted against drug concentration on semilogarithmic paper and the best fitting S-shaped curve is drawn. The IC50 value is determined as the concentration at which the binding is 50% of the total binding in control samples minus the nonspecific binding in the presence of 1 μM of Prazosin. ^3 H-Prazosin=[furoyl-5-^3 H]-Prazosin from New England Nuclear, specific activity approximately 20 Ci/mmol.

Assay [1] has as its target T2, 5-HT2 (Rattus norvegicus, UniProt P14842).
T2 construct: Four rats, male Wistar (Mol:Wist) SPF rats weighing 170-240 g; from tissue; host or cells: living male Wistar (Mol:Wist) SPF rats (in vivo, endogenous receptor)
The experiment in a line: quipazine inhibition (quipazine-induced head twitches in rats). In kind it is in vivo. On the procedure:
Quipazine is a 5-HT2 agonist, which induces head twitches in rats. The test is a test for 5-HT2 -antagonistic effect testing the ability to inhibit head twitches. The method and test results for some reference substances are published by Arnt et al. (Drug Development Research, 16, 59-70, 1989).
Test substance is injected s.c. 2 hrs before or p.o. 24 hrs before quipazine administration (6.8 mg/kg, s.c., dimaleate). Four rats, male Wistar (Mol:Wist) SPF rats weighing 170-240 g, are used at each dose level. A control group is included each test day. By repeated testing (2, 24 hrs) the control group is the same, however. After quipazine administration the rats are individually placed in the observation cages and head twitches are counted in an observation period of 30-40 min. after injection of quipazine.
Total number of head twitches in each group is calculated and the result for each dose is expressed as per cent of the response in the control group. ED50 values are calculated by log-probit analysis. The test must be repeated if the average number of head twitches is lower than 9 in the control group.

In assay [2] the target is T3, serotonin S2 (5-HT2) receptors (Rattus norvegicus, UniProt P14842).
T3 construct: cortical tissue is dissected and weighed; from tissue; host or cells: cerebral cortex membranes of male Wistar (Mol:Wist) rats
The experiment in a line: inhibition of 3H-ketanserin binding to serotonin S2 (5-HT2) receptors in rat cortex in vitro. Conditions: 3H-ketanserin 0.5 nM, rat cortex membranes, read-out: Binding IC50, 3H Ket.

Another assay deals with T4, dopamine D-2 receptors (Rattus norvegicus, UniProt P61169).
T4 construct: striatal tissue is dissected and weighed; from tissue; host or cells: corpus striatum membranes of male Wistar rats
The assay can be described thus: inhibition of 3H-spiperone binding to dopamine D-2 receptors in rat corpus striatum in vitro. Conditions: 3H-spiperone 0.5 nM, rat corpus striatum membranes, in vitro; read-out: Binding IC50, 3H Spi. The method in brief:
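Rat striatal membranes from male Wistar rats in 50 mM K-phosphate pH 7.4 incubated 10 min at 37 °C with 0.5 nM ³H-spiperone and five drug concentrations over 3 decades. Bound radioactivity collected by filtration and counted by scintillation; nonspecific binding defined with 10 μM 6,7-ADTN.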

The conditions of assay [3]: Janssen 1988; cited from earlier work.
Assay [4] addresses T2, 5-HT2. The assay can be described thus: quipazine inhibition (quipazine-induced head twitches in rats). Type of assay: in vivo. Conditions: sc, s.c. (marked in cell), 24 h before quipazine, read-out: Quipazine inhibition ED50, 24h (sc).
The conditions of assay [5]: Klieser and Strauss 1988; cited from earlier work.
The conditions of assay [6]: animal test, Colpart et al. 1985; cited from earlier work.
The conditions of assay [7]: Bersani et al. 1990; cited from earlier work.
Setting [8] is: sc, read-out: Quipazine inhibition ED50, 2h (sc), s.c., 2 h before quipazine.
Setting [9] is: po, 24 h, read-out: Quipazine inhibition ED50, 24h (po).
Setting [10] is: sc, 2 h, read-out: Quipazine inhibition ED50, 2h (sc).

Each structure is given as a SMILES string. Read-outs that look alike come from different tables or passages of the source. Bounds are passed on as bounds.

T4 sequence (P61169 whole entry): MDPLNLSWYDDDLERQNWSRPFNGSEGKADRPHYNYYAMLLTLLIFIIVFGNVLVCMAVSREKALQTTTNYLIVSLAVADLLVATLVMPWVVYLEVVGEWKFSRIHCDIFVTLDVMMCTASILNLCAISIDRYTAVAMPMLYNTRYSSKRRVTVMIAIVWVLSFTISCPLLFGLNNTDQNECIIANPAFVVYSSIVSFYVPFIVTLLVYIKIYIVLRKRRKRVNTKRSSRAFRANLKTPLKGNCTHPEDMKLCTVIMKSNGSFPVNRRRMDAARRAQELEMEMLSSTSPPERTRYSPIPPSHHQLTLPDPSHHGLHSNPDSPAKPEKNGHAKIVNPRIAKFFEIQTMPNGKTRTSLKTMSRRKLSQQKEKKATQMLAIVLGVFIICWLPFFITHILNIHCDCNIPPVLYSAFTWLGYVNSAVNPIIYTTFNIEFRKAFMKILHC
T1 sequence (P61169 whole entry): as above
T2 sequence (P14842 whole entry): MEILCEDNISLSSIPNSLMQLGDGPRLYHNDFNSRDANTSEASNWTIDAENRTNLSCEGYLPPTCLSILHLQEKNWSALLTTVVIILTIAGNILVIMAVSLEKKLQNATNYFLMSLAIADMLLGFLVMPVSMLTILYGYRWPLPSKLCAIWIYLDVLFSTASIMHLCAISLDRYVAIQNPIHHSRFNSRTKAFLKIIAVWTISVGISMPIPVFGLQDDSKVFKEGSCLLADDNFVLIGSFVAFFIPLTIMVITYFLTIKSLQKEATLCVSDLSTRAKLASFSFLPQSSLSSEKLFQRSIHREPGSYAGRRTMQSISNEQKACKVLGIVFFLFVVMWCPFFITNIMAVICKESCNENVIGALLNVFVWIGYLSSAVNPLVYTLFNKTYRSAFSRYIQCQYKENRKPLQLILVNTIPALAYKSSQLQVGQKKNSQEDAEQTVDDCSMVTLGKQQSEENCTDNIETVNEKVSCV
T3 sequence (P14842 whole entry): as above

As for `O=C1NCCN1CCN1CCC(c2cn(-c3ccc(F)cc3)c3ccc(Cl)cc23)CC1` [sertindole (Lu 23-174), 5-chloro-1-(4-fluorophenyl)-3-[1-[2-(2-imidazolidinon-1-yl)ethyl]-4-piperidyl]-1H-indole, reference compound], the results for the ED50 at DA D-2 and on 5-HT2 [1] (setting [8]) were 7.2 µmol/kg and 0.04 µmol/kg, respectively. The IC50 at α1 adrenoceptors came to 3.4 nM. For the same compound, the “Quipazine inhibition ED50, 24h (po)” value on 5-HT2 [1] (p.o., 24 h before quipazine) was determined as 0.04 µmol/kg.
As to `O=C1NCCN1CCN1CCC(c2cn(-c3ccc(F)cc3)c3cc(Cl)c(Cl)cc23)CC1` [Compound 5f, 5,6-dichloro-1-(4-fluorophenyl)-3-[1-[2-(2-imidazolidinon-1-yl)ethyl]-4-piperidyl]-1H-indole], the ED50 is > 42 µmol/kg at DA D-2, 0.04 µmol/kg on 5-HT2 [1] (setting [9]) and 0.12 µmol/kg at 5-HT2 [1] (setting [10]). Moreover, the IC50 in assay [2] stood at 3.5 nM.
In the case of `Cc1ccc2c(C3CCN(CCN4CCN(C(C)C)C4=O)CC3)cn(-c3ccccc3)c2c1` [Compound 15a], the IC50 on dopamine D-2 receptors came to 500 nM; in assay [2], 2 nM; at α1 adrenoceptors, 120 nM. On 5-HT2 [1] (setting [10]), the 50% effective dose (ED50) is 0.01 µmol/kg.
Consider `Cc1ccc2c(N3CCN(CCN4CCN(C(C)C)C4=O)CC3)cn(-c3ccc(F)cc3)c2c1` [Compound 6b, 1-(4-fluorophenyl)-6-methyl-3-[4-[2-[3-(2-propyl)-2-imidazolidinon-1-yl]ethyl]-1-piperazinyl]-1H-indole], for which the figures for the IC50 (on dopamine D-2 receptors; in [2]; at α1 adrenoceptors) were 180 nM, 2.7 nM and 76 nM, respectively. The ED50 at 5-HT2 [1] (setting [10]) came out at 0.04 µmol/kg.
For `CN(C)CCSc1nc2ccccc2cc1-c1ccccc1` [ICI 169369, reference compound] the same measures were 490 nM, 15 nM, 300 nM and > 3.6 µmol/kg.
The matching figures for `CC(C)N1CCN(CCN2CCC(c3cn(-c4ccccc4F)c4cc(Cl)ccc34)CC2)C1=O` [Compound 15j, 6-chloro-1-(2-fluorophenyl)-3-[1-[2-[3-(2-propyl)-2-imidazolidinon-1-yl]ethyl]-4-piperidyl]-1H-indole]: 300 nM, 3.7 nM, 120 nM and 0.08 µmol/kg.
Take `Cc1nc2sccn2c(=O)c1CCN1CCC(=C(c2ccc(F)cc2)c2ccc(F)cc2)CC1` [ritanserin]: the quality of sleep result in [3] is “improve the quality of sleep”. Further, the ED50 is > 21 µmol/kg on DA D-2, 0.98 µmol/kg at 5-HT2 [4] and 0.08 µmol/kg at 5-HT2 [1] (setting [8]). The IC50 at α1 adrenoceptors was 47 nM. For the same compound, the “antidepressant effect and depressive symptoms of schizophrenia” value in assay [5] is “has been shown to be an antidepressant and to improve depressive symptoms of schizophrenia”. The “effects reminiscent of anxiolytic drug activity” value in assay [6] is “exert effects in an animal test reminiscent of anxiolytic drug activity”. In addition, the neuroleptic-induced parkinsonism entry in [7] is given as “relieve neuroleptic-induced parkinsonism”.
As for `Cc1ccc2c(c1)N(c1ccc(F)cc1)CC2C1CCN(CCN2CCN(C(C)C)C2=O)CC1` (centres unmarked) [Compound 20a, 1-(4-fluorophenyl)-6-methyl-3-[1-[2-[3-(2-propyl)-2-imidazolidinon-1-yl]ethyl]-4-piperidyl]-2,3-dihydro-1H-indole], the IC50 at dopamine D-2 receptors was determined as 180 nM; in assay [2], 5.3 nM. In addition, the ED50 on 5-HT2 [1] (setting [10]) was 0.49 µmol/kg.
For the compound `COc1ccc2c(C3CCN(CCN4CCN(C(C)C)C4=O)CC3)cn(-c3ccc(F)cc3)c2c1` [Compound 4i, 1-(4-fluorophenyl)-6-methyoxy-3-[1-[2-[3-(2-propyl)-2-imidazolidinon-1-yl]ethyl]-4-piperidyl]-1H-indole], the IC50 at dopamine D-2 receptors amounted to 710 nM; in assay [2], 7.1 nM; on α1 adrenoceptors, 140 nM.
As to `CC(C)c1ccc2c(C3CCN(CCN4CCN(C(C)C)C4=O)CC3)cn(-c3ccc(F)cc3)c2c1` [Compound 5c, 1-(4-fluorophenyl)-6-(2-propyl)-3-[1-[2-[3-(2-propyl)-2-imidazolidinon-1-yl]ethyl]-4-piperidyl]-1H-indole], the IC50 on dopamine D-2 receptors worked out at 2000 nM; in assay [2] it was 16 nM; on α1 adrenoceptors, 730 nM.
Consider `O=C1NCCN1CCN1CCC(c2cn(-c3ccc(F)cc3)c3cc(Cl)ccc23)CC1` [Compound 4b, 6-chloro-1-(4-fluorophenyl)-3-[1-[2-(2-imidazolidinon-1yl)ethyl]-4-piperidyl]-1H-indole], for which the ED50 at DA D-2 is > 23 µmol/kg; at 5-HT2 [1] (setting [10]), 0.06 µmol/kg. In addition, the IC50 in [2] is 1.4 nM.
As for `Cc1ccc2c(C3CCN(CCNC(=O)N(C)C)CC3)cn(-c3ccc(F)cc3)c2c1` [Compound 9b, 3-[1-[2-(3,3-dimethyl-1-ureido)-1-ethyl]-4-piperidyl]-1-(4-fluorophenyl)-6-methyl-1H-indole], in assay [2], the IC50 came out at 2.6 nM. Besides, the ED50 at 5-HT2 [1] (setting [9]) is < 0.14 µmol/kg; on 5-HT2 [1] (setting [10]) it was 0.12 µmol/kg.

Usually ED50 stands for the dose that gives a 50% effect, or the effect in half of the subjects. One may read the IC50 as the concentration needed to halve the response being measured.
